Experimental data taken from patent US12674139B2, “Serum-free medium not containing albumin and suited for culturing human hematopoietic stem cells, and albumin-free culturing method” (The University of Tokyo, priority 2019, dated 2026).
Non-standard residues stand in square brackets, D forms with d. No end group written: not given here. pY = N[C@@H](Cc1ccc(OP(=O)(O)O)cc1)C(=O)O

Key:
Mpl32D cells = experiment: Culture with TPO receptor agonists as TPO replacements, with albumin or PVA; assay type: cell-based, human; details: 0.1 μM butyzamide, 3 μg/mL eltrombopag, 3 μM avatrombopag
Protocol: Subsequently, whether or not TPO can be replaced with a TPO receptor agonist in culture of human hematopoietic stem cells was examined. Butyzamide, eltrombopag, and avatrombopag are known as TPO receptor agonists. Human hematopoietic stem cells were cultured in the presence of 0.1% recombinant human serum albumin (Albumin Biosciences) or in the presence of PVA in the above-mentioned culture medium having a composition from which TPO was removed and to which 0.1 μM butyzamide, 3 μg/mL eltrombopag, or 3 μM avatrombopag was added. In this experiment, Mpl32D cells were used as human hematopoietic stem cells.

human CD34+ cells [1] = experiment: Culture of human bone marrow or umbilical cord blood CD34+ cells in PVA medium, proliferation rate by cell count and flow cytometry; details: for ratio of number of cells at day 7 relative to first day of culture: TPO replaced with TPO receptor agonist; for proliferation rate of total cells and CD34+ cells relative to start of culture: neither SCF nor TPO, 20 μM PI3Ka, 0.1 μM TPOago or both
From the text: The cells were dispensed to a 24-well plate at 0.2 to 1.0×10^5 cells per well, TPO was removed from a culture medium for human hematopoietic stem cells and replaced with any of the above-mentioned TPO receptor agonists (hereinafter, may be referred to as “TPOago”) to perform the experiment. The ratio of the number of cells at day 7 of culture relative to the first day of culture was obtained.
Subsequently, whether or not SCF and TPO can be replaced with PI3Ka and a TPO receptor agonist in the absence of albumin and in the presence of PVA was examined. In the following example, butyzamide was used as a TPO receptor agonist. […] Seven days later, the number of total cells was obtained, and the number of CD34+ cells was obtained by flow cytometry. Then, the proliferation rate compared with the start of culture was obtained.
Further, subsequently, a culture experiment of human hematopoietic stem cells was performed in a culture medium comprising neither SCF nor TPO to which 20 μM PI3Ka or 0.1 μM TPOago or both were added.
Further, subsequently, which cell population easily proliferated in a medium in which SCF and TPO were replaced with PI3Ka and TPOago was examined. CD34^+ cells isolated from given fresh umbilical cord blood using microbeads as described above were used in the culture experiment.
The cells were dispensed to a 24-well plate at 0.2×10^5 to 1.0×10^5 cells per well, and CD34^+ cells were cultured in the prepared media.

[2] = tested on: human hematopoietic stem cells (CD34+CD38− cells); experiment: Proliferation of human hematopoietic stem cells in albumin-free serum-free PVA medium; assay type: cell-based; details: no albumin
Protocol: In this example, an assay was performed in which mouse hematopoietic stem cells (KSL cells) and human hematopoietic stem cells (CD34^+CD38^− cells) were allowed to proliferate in a culture medium not comprising albumin. The culture medium was a serum-free medium comprising polyvinyl alcohol (PVA) and not comprising albumin, as described in Wilkinson et al., Nature, 571:117-121, 2019.
Specifically, the culture medium used for culture of mouse hematopoietic stem cells was an F12 medium comprising 1% insulin-transferrin-selenium-ethanolamine (ITSX), 10 mM HEPES, 1% penicillin-streptomycin-glutamine, 100 ng/mL mouse thrombopoietin (mTPO), and 10 ng/mL mouse stem cell factor (mSCF). The medium comprised PVA at the final concentration of 0.1%. The culture medium used for culture of human hematopoietic stem cells was an IMDM medium comprising 1% insulin-transferrin-selenium-ethanolamine (ITSX), 25 mM HEPES, 1% penicillin-streptomycin-glutamine, 100 ng/mL human thrombopoietin (hTPO), and 10 ng/mL human stem cell factor (hSCF). The medium comprised PVA at the final concentration of 0.1%.
Unless otherwise specified, all media used in the following examples were an IMDM medium comprising 1% insulin-transferrin-selenium-ethanolamine (ITSX), 25 mM HEPES, 1% penicillin-streptomycin-glutamine, and PVA (hereinafter, also referred to as “common medium”). Therefore, hereinafter, description of the medium will be focused on components added to the common medium. For example, given that the above-mentioned medium comprises TPO and SCF in addition to the common medium, it is to be referred to as a TPO+SCF medium for the purpose of convenience. […]
Accordingly, human hematopoietic stem cells were cultured in a culture medium comprising 0.3 μM AKTa (name of distributer, Sigma-Aldrich; product number 123871) or 20 μM PI3Ka. Cells were counted after 3 days, 5 days, and 7 days of culture, and the ratios of the number of cells at each time point to the number of cells on the first day of culture, which was standardized as 1, were obtained. […]

human CD34+ cells [3] = experiment: Colony assay in MethoCult H4415 medium with Giemsa staining; assay type: cell-based; details: cells after 7 days culture; 20 μM PI3Ka + 0.1 μM butyzamide versus PI3Ka + TPO
From the text: Subsequently, whether or not SCF and TPO can be replaced with PI3Ka and a TPO receptor agonist in the absence of albumin and in the presence of PVA was examined. In the following example, butyzamide was used as a TPO receptor agonist. Purchased human bone marrow CD34+ cells (distributor name, Lonza; product number 2C-101) or CD34+ cells isolated from given fresh umbilical cord blood using microbeads as described above were used in the culture experiment. […] Two weeks later, colonies were picked up, cytospin specimens were prepared, Giemsa staining was performed, and then the types of colonies were determined under a microscope. The number of GEmM colonies per 50 CD34+ cells was counted, and the percentage increase in the number of colonies compared with before culture was obtained.
Further, 100 CD34+ cells obtained in the culture at […] after the start of culture were seeded each on a MethoCult™ H4415 medium, and a colony assay was performed. […] Then, after Giemsa staining was performed for the specimens, the types of colonies were determined under a microscope.

[4] = 0.1% recombinant human serum albumin, no TPO
[5] = day 7, 20 μM PI3Ka + TPO 100 ng/mL

| Compound | proliferation (change with time in number of cells) (Mpl32D cells; [4]) | proliferation (change with time in number of cells) (Mpl32D cells; PVA, no albumin) | ratio of number of cells at day 7 relative to first day of culture (human CD34+ cells [1]; PVA, no albumin) | proliferation rate of total cells relative to before start of culture (human CD34+ cells [1]; day 14, added to 20 μM PI3Ka + 0.1 μM TPOago, SR-1 500 nM, UM171 35 nM) | ratio of number of cells to first day of culture ([2]; 3, 5, 7 days, SCF 10 ng/mL + TPO 100 ng/mL, 0.3 μM AKTa or 20 μM PI3Ka) | number of CD34+ cells, with SCF versus without SCF [2, 5] | number of total cells, with SCF versus without SCF [2, 5] | proliferation rate of total cells and CD34+ cells relative to start of culture (human CD34+ cells [1]; day 7, PVA, no albumin) | proliferation rate of total cells and CD34+ cells compared with start of culture (human CD34+ cells [1]; day 7, 20 μM PI3Ka + 0.1 μM butyzamide versus 20 μM PI3Ka + TPO 100, PVA, no albumin, no SCF) | GEmM colony forming ability (number of GEmM colonies per 50 CD34+ cells) (human CD34+ cells [3]) |
| --- | --- | --- | --- | --- | --- | --- | --- | --- | --- | --- |
| O=C(Nc1nc(-c2cc(Cl)cs2)c(N2CCN(C3CCCCC3)CC2)s1)c1cnc(N2CCC(C(=O)O)CC2)c(Cl)c1 [avatrombopag] | could support proliferation | low effect | Death of hematopoietic stem cells occurred | – | – | – | – | – | – | – |
| CC(C)n1cnc2c(NCCc3ccc(O)cc3)nc(-c3csc4ccccc34)nc21 [SR-1] | – | – | – | killed cells | – | – | – | – | – | – |
| PI3Ka: peptide of amino acid sequence RQIKIWFQNRRMKWKKSDGGYMDMS in which Y is phosphorylated; Tocris product number 1983 (RQIKIWFQNRRMKWKKSDGG[pY]MDMS) | – | – | – | – | clearly proliferated | no significant difference | no significant difference | increases of cells were not observed | – | – |
| CCCOC(c1cccc(-c2csc(NC(=O)c3cc(Cl)c(C=C(C)C(=O)O)c(Cl)c3)n2)c1OC)C(C)(C)C (centres unmarked) [butyzamide, 3-[4-[[[4-[2-methoxy-3-(1-tert-butyl-2-oxapentan-1-yl)phenyl]thiazol-2-yl]amino]carbonyl]-2,6-dichlorophenyl]-2-methylpropenoic acid] | could support proliferation | marked proliferative effect | significantly proliferated | – | – | – | – | increases of cells were not observed | could completely replace TPO | could completely replace TPO |
